From PubChem BioAssay AID602307 (Southern Research Specialized Biocontainment Screening …, 2012)
Activity calls are given as the source filed them. The rule behind the calls is not given here.

Tested on: VEEV TC-83 infected cells, virus titer reduction
Test: VEEV titer reduction by compounds, cell-based, TC-83 strain, virus titer (AID 602307)
Conditions: for log virus titer change: stronger effect = lower value

SMILES	log virus titer change (at 5 µM)	outcome	log virus titer change (titer change, at 10 µM)
CN(C(=O)Cc1cccs1)c1nc2c(s1)CCCC2	0.281 (inactive)		
O=C(Oc1ccc2ccccc2c1Br)N1CCCCCC1		active	-2.09
O=c1nc(Nc2ccc(OCc3ccccc3)cc2)sc2ncccc12		active	-3.43
CC(C)N1CCN(Cc2nc3ccc([N+](=O)[O-])cc3c(=O)n2-c2ccccc2F)CC1	0.041 (inactive)		
CCN1CCN(Cc2nc3ccc([N+](=O)[O-])cc3c(=O)n2-c2ccccc2F)CC1	< -6.36		-5.8
O=C(Cc1ccccc1)Nc1nc2c(s1)CCCC2	-0.01 (inactive)		
O=c1c2cc([N+](=O)[O-])ccc2nc(CN2CCN(c3ccccc3)CC2)n1-c1ccccc1F		active	-1.3
Cc1ccccc1C(=O)Nc1ccc2c(c1)CCCN2C(=O)c1cccs1		active	-2.04
O=C(Cc1cccs1)Nc1nc2ccccc2s1	-0.238 (inactive)		
CCOC(=O)c1ccc(Nc2nc(=O)c3cccnc3s2)cc1		active	-3.31
CN1CCN(Cc2nc3ccc([N+](=O)[O-])cc3c(=O)n2-c2ccccc2F)CC1	< -6.36		
O=C(Nc1nc2c(s1)CCCC2)c1cccs1	-0.12 (inactive)		
O=c1c2cc([N+](=O)[O-])ccc2nc(CN2CCOCC2)n1-c1ccccc1F	0.297 (inactive)		
Cc1cc(Cc2cc(C)cc(C(C)(C)C)c2O)c(O)c(Cc2cc(C)cc(C(C)(C)C)c2O)c1	-0.734 (inactive)		
O=C(Cc1cccs1)Nc1nc2c(s1)CCCC2		active	-2.14
O=C(Cc1cccs1)Nc1nccs1	-0.062 (inactive)		
Clc1ccc2nnnc(-c3ccccc3)c2c1		active	-4.36
